The numbers were not newly measured in patent US20190350197A1, “Composition comprising polyurethane microcapsules comprising cinmethylin” (BASF Agro B.V., priority 2016, published 2019), which cites them from elsewhere.

For the series the following is noted: at 20° C.

Turning to “(±)-2-exo-(2-methylbenzyloxy)-1-methyl-4-isopropyl-7-oxabicyclo[2.2.1]heptane [Cinmethylin]”, the solubility in water is reported as 0.063 g-L^−1.
